In ChEMBL document CHEMBL3860060, “Discovery and Optimization of 1-Phenoxy-2-aminoindanes as Potent, Selective, and Orally Bioavailable Inhibitors of the Na+/H+ Exchanger Type 3 (NHE3)” (J Med Chem, 2016):
Each block holds one compound with its values, some of them ahead of it. Calls of active or inactive are those of the source. The calls are words filed in the database; no cut-off is given here.

Assays:
Homo sapiens [1] = species: Homo sapiens; experiment: Inhibition of GABA-gated chloride channel (unknown origin) at 10 uM
Homo sapiens [2] = species: Homo sapiens; experiment: Inhibition of PDE4 (unknown origin) at 10 uM
Sus scrofa [3] = experiment: Inhibition of upper airway collapsibility in urethane-chloralose anesthetized pig at 1 mg/kg, id after 4 hrs; type: functional, organism-based
Sus scrofa [4] = experiment: Inhibition of upper airway collapsibility in urethane-chloralose anesthetized pig at 3 mg/kg, id after 4 hrs; type: functional, organism-based
[5] = molecular target: T1, Sodium/hydrogen exchanger 3 (Homo sapiens, UniProt P48764); experiment: Inhibition of human NHE3 expressed in LAP1 cell assessed as intracellular pH recovery measured for 2 mins by CECF-AM dye based FLIPR assay
T1 sequence (P48764 whole entry): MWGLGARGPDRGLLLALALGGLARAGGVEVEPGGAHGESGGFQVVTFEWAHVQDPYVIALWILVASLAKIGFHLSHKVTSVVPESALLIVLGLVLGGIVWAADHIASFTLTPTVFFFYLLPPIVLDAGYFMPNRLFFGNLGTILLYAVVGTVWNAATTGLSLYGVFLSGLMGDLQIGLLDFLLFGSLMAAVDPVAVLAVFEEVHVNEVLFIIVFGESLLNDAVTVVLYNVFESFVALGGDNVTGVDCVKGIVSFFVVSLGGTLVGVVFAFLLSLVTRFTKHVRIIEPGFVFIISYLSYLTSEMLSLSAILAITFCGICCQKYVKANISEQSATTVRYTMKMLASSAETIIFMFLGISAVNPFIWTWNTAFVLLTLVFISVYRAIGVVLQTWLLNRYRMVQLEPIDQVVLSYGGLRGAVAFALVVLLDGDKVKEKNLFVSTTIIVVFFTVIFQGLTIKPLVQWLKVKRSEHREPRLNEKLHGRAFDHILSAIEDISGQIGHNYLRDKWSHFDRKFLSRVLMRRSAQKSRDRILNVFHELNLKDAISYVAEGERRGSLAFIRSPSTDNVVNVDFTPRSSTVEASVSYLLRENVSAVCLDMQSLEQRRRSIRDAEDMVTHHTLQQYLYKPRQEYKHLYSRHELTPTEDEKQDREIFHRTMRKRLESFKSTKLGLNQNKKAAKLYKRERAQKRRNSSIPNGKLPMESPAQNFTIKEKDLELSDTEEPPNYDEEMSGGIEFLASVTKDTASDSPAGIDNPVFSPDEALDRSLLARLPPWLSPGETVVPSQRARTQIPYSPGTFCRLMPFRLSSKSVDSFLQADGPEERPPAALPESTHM

[6] = Permeability in human Caco2/TC7 cells assessed as total flux at 20 uM incubated for 2 hrs by LC-MS/MS method; type: ADME, cell-based; details: Caco-2, read-out: permeability
CYP2D6 = CYP2D6 (Homo sapiens, UniProt P10635); experiment: Inhibition of CYP2D6 in pooled human hepatic microsomes at 10 uM using dextromethorphan substrate in presence of NADPH; type: ADME; details: pooled human liver microsomes, probe dextromethorphan
Cytochrome P450 2D6 = Cytochrome P450 2D6 (Homo sapiens, UniProt P10635)
Description: Inhibition of CYP2D6 in pooled human hepatic microsomes using dextromethorphan substrate in presence of NADPH

[7] = Inhibition of cat NHE3 expressed in LAP1 cell assessed as intracellular pH recovery measured for 2 mins by CECF-AM dye based FLIPR assay; details: Felis catus, LAP1, 2 min
[8] = molecular target: T2, Sodium/hydrogen exchanger isoform 3 (Sus scrofa, UniProt Q9XSD0); experiment: Inhibition of pig NHE3 expressed in LAP1 cell assessed as intracellular pH recovery measured for 2 mins by CECF-AM dye based FLIPR assay
T2 sequence (Q9XSD0 whole entry): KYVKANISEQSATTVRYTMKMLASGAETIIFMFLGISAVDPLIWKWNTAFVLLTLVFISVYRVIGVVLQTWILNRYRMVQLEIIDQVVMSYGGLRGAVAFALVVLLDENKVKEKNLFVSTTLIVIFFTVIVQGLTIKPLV

[9] = molecular target: Sodium/hydrogen exchanger 3 (Rattus norvegicus, UniProt P26433); experiment: Inhibition of rat NHE3 expressed in LAP1 cell assessed as intracellular pH recovery measured for 2 mins by CECF-AM dye based FLIPR assay
[10] = molecular target: Sodium/hydrogen exchanger 1 (Homo sapiens, UniProt P19634); experiment: Inhibition of human NHE1 expressed in LAP1 cell assessed as intracellular pH recovery measured for 2 mins by CECF-AM dye based FLIPR assay
[11] = molecular target: T3, Sodium/hydrogen exchanger 2 (Homo sapiens, UniProt Q9UBY0); experiment: Inhibition of human NHE2 expressed in LAP1 cell assessed as intracellular pH recovery measured for 2 mins by CECF-AM dye based FLIPR assay
T3 sequence (Q9UBY0 whole entry): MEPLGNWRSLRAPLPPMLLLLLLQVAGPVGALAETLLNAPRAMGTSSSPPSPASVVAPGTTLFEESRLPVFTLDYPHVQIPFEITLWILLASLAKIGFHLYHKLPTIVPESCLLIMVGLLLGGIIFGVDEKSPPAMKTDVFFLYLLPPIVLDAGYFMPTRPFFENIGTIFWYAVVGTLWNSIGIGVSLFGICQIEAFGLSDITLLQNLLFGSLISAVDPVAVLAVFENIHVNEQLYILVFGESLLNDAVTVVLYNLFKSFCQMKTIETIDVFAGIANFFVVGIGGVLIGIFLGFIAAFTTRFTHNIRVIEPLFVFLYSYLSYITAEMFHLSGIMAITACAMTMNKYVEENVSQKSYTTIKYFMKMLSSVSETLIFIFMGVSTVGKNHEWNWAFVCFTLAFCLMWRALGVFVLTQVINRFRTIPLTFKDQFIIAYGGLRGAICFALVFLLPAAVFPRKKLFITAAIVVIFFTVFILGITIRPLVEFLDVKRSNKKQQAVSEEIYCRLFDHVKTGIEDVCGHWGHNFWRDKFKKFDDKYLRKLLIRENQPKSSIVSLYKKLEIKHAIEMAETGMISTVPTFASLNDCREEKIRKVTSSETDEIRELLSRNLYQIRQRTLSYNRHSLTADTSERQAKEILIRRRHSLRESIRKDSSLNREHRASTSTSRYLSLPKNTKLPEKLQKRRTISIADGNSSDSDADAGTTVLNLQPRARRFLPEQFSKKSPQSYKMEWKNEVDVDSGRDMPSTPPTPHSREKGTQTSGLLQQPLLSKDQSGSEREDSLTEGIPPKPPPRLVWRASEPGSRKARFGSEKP

[12] = molecular target: T4, Sodium/hydrogen exchanger 5 (Homo sapiens, UniProt Q14940); experiment: Inhibition of human NHE5 expressed in LAP1 cell assessed as intracellular pH recovery measured for 2 mins by CECF-AM dye based FLIPR assay
T4 sequence (Q14940 whole entry): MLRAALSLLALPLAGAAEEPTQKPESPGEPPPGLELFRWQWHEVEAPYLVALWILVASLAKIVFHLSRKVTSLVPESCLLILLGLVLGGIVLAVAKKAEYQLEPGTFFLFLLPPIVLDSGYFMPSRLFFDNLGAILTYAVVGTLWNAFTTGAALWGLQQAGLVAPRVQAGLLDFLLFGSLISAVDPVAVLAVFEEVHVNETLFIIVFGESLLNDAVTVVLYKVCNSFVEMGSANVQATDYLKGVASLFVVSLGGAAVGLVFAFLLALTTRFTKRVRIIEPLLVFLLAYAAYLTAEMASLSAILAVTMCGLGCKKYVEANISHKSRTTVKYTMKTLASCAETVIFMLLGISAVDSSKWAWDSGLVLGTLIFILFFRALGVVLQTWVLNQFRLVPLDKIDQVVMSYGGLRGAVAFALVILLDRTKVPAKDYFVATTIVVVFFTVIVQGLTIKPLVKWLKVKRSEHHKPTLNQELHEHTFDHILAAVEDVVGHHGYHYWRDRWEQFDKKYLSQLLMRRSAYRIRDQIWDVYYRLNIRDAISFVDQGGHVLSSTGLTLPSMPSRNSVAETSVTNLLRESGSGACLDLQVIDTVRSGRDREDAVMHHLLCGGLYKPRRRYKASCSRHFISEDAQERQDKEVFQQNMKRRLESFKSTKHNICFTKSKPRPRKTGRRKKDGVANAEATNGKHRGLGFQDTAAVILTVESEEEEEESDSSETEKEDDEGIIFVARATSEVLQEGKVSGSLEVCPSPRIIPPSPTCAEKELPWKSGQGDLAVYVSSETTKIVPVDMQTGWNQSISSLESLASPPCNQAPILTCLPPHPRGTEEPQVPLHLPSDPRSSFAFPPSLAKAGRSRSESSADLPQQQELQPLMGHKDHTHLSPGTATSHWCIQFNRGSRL

[13] = Inhibition of GABA-gated chloride channel (unknown origin); design: species or system Homo sapiens
[14] = Inhibition of PDE4 (unknown origin); design: species or system Homo sapiens
[15] = Drug metabolism in human hepatic microsomes assessed as compound lability by LC-MS/MS method; type: ADME, Microsome; details: liver microsomes, read-out: Drug metabolism
[16] = Drug metabolism in rat hepatic microsomes assessed as compound lability by LC-MS/MS method; type: ADME, Microsome; details: liver microsomes, read-out: Drug metabolism
[17] = Drug metabolism in mouse hepatic microsomes assessed as compound lability by LC-MS/MS method; type: ADME, Microsome; details: liver microsomes, read-out: Drug metabolism
[18] = Drug metabolism in guinea pig hepatic microsomes assessed as compound lability by LC-MS/MS method; type: ADME, Cavia porcellus, Microsome; details: liver microsomes, read-out: Drug metabolism
[19] = Drug metabolism in rabbit hepatic microsomes assessed as compound lability by LC-MS/MS method; type: ADME, Oryctolagus cuniculus, Microsome; details: liver microsomes, read-out: Drug metabolism
[20] = Drug metabolism in Landrance pig hepatic microsomes assessed as compound lability by LC-MS/MS method; type: ADME, Sus scrofa, Microsome; details: Landrace, liver microsomes, read-out: Drug metabolism
[21] = Drug metabolism in hamster hepatic microsomes assessed as compound lability by LC-MS/MS method; type: ADME, Microsome; details: cricetinae, liver microsomes; read-out: Drug metabolism
[22] = Drug metabolism in macaque hepatic microsomes assessed as compound lability by LC-MS/MS method; type: ADME, Macaca mulatta, Microsome; details: rhesus monkey, liver microsomes; read-out: Drug metabolism
[23] = Drug metabolism in human hepatic microsomes assessed as compound lability in presence of CYP3A4 inhibitor ketoconazole by LC-MS/MS method; type: ADME, Microsome; details: liver microsomes, with ketoconazole (CYP3A4 inhibitor), concentration not stated, read-out: Drug metabolism
[24] = Clearance in human hepatocytes assessed per million cells at 5 uM by LC-MS/MS method; type: ADME, cell-based, Hepatocyte
[25] = Drug metabolism in human hepatic microsomes assessed as glucuronidation by LC-MS/MS method; type: ADME, Liver, Microsome
[26] = Drug metabolism in rat hepatic microsomes assessed as glucuronidation by LC-MS/MS method; type: ADME, Liver, Microsome
[27] = Drug metabolism in dog hepatic microsomes assessed as glucuronidation by LC-MS/MS method; type: ADME, Canis lupus familiaris, Liver, Microsome
[28] = Drug metabolism in mouse hepatic microsomes assessed as glucuronidation by LC-MS/MS method; type: ADME, Liver, Microsome
[29] = Drug metabolism in rabbit hepatic microsomes assessed as glucuronidation by LC-MS/MS method; type: ADME, Oryctolagus cuniculus, Liver, Microsome
[30] = Drug metabolism in guinea pig hepatic microsomes assessed as glucuronidation by LC-MS/MS method; type: ADME, Cavia porcellus, Liver, Microsome
[31] = Drug metabolism in hamster hepatic microsomes assessed as glucuronidation by LC-MS/MS method; type: ADME, Liver, Microsome; details: cricetinae
[32] = Drug metabolism in monkey hepatic microsomes assessed as glucuronidation by LC-MS/MS method; type: ADME, Macaca mulatta, Liver, Microsome; details: rhesus monkey
[33] = Drug metabolism in pig hepatic microsomes assessed as glucuronidation by LC-MS/MS method; type: ADME, Sus scrofa, Liver, Microsome
[34] = Drug metabolism in mini pig hepatic microsomes assessed as glucuronidation by LC-MS/MS method; type: ADME, Sus scrofa, Liver, Microsome
Cytochrome P450 2C9 = Cytochrome P450 2C9 (Homo sapiens, UniProt P11712); experiment: Inhibition of CYP2C9 in pooled human hepatic microsomes using diclofenac substrate in presence of NADPH; type: ADME, Liver
Salmonella typhimurium = experiment: Genotoxicity in Salmonella typhimurium at 300 ug/ml by AMES II test; type: toxicity, organism-based; details: salmonella enterica subsp. enterica serovar typhimurium
[35] = Toxicity in Xenopus laevis at 62.5 ug/ml by FETAX assay

Cytochrome P450 2D6, sequence (P10635 whole entry): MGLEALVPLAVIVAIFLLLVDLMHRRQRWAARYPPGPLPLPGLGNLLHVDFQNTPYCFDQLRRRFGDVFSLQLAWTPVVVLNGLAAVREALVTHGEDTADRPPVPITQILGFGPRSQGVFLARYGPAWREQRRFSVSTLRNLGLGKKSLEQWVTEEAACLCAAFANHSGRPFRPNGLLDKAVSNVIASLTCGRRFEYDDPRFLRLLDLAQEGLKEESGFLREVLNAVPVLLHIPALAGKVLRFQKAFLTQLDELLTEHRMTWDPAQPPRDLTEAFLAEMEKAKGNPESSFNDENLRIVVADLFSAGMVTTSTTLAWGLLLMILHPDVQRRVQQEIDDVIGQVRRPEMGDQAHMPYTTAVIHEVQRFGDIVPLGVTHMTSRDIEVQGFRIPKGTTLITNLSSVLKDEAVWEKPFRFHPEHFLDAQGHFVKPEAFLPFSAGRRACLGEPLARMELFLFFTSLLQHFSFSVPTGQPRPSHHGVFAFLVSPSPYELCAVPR
CYP2D6, sequence (P10635 whole entry): as above
Sodium/hydrogen exchanger 3 (Rattus norvegicus, UniProt P26433), sequence (P26433 whole entry): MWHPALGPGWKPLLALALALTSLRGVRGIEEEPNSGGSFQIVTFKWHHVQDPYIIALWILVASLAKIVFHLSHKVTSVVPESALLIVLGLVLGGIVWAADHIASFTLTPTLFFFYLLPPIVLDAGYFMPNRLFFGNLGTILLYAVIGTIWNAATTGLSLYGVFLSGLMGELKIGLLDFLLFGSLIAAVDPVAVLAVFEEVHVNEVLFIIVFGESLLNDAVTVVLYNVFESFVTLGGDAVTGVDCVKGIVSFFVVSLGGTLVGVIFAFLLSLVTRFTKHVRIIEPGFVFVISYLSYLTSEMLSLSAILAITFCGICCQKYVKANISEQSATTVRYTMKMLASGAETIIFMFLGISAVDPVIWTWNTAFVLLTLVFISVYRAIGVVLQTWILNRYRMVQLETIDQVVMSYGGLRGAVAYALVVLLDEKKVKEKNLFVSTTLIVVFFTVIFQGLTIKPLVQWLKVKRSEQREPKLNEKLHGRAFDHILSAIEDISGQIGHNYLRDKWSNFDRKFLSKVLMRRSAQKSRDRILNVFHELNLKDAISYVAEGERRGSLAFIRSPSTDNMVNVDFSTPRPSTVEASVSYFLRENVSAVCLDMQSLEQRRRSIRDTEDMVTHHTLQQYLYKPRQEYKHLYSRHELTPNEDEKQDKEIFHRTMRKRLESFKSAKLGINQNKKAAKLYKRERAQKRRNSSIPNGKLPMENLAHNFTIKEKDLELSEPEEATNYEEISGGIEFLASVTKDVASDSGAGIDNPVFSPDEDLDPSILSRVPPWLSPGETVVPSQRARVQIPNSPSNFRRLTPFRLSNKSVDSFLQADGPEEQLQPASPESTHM
Cytochrome P450 2C9, sequence (P11712 whole entry): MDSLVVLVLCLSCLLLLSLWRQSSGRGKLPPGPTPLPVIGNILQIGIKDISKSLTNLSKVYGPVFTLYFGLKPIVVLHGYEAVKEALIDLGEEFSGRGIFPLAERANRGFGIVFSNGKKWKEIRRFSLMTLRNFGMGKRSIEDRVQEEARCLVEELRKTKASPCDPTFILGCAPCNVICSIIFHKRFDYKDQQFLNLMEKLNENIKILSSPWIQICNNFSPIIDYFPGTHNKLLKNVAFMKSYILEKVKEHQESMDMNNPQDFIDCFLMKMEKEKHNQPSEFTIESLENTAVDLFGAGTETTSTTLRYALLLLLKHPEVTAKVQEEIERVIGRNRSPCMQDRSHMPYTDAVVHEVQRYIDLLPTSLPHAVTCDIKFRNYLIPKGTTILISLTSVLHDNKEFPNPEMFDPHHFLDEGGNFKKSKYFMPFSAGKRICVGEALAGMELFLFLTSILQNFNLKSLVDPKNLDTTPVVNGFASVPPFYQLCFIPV
Sodium/hydrogen exchanger 1, sequence (P19634 whole entry): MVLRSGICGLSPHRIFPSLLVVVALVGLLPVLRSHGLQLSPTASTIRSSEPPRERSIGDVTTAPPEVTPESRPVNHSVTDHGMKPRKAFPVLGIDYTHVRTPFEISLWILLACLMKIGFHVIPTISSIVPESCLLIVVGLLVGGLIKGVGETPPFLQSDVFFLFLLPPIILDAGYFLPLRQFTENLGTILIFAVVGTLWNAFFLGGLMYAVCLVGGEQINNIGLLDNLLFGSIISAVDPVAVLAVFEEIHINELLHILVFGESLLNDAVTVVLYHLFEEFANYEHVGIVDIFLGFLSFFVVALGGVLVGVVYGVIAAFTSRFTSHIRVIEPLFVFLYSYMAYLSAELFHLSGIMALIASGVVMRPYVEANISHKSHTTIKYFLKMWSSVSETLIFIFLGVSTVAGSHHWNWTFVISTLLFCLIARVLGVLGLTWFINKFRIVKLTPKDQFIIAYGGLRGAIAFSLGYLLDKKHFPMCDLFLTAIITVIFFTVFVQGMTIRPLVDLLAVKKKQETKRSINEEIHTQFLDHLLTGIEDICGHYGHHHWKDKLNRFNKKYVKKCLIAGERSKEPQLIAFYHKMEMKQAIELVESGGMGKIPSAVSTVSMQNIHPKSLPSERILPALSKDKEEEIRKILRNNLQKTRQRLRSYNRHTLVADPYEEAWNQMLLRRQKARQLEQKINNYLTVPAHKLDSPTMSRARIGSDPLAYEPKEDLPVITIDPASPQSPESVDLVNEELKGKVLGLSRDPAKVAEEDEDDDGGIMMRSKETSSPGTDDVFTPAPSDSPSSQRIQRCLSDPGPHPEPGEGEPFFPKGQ

inhibition (Homo sapiens [1]): 55%
inhibition (Homo sapiens [2]): 54%
Compound: Cc1nnc(C)n1-c1ccc(O[C@H]2c3cc(Cl)cc(Cl)c3C[C@@H]2N2CC[C@@H](O)C2)c(F)c1
inhibition (Sus scrofa [3]): Active
inhibition (Sus scrofa [4]): Active

IC50 [5]: 17 nM
Papp at 2 h, 20 µM [6]: 0.2 ×10⁻⁶ cm/s
inhibition at 10 µM (CYP2D6): 22%
IC50 (Cytochrome P450 2D6): > 10 µM
Compound: Cc1nnc(C)n1-c1ccc(O[C@H]2c3cc(Cl)cc(Cl)c3C[C@@H]2N2CCCN(C)CC2)cc1

IC50 [7]: 6.1 nM
IC50 [8]: 7.8 nM
IC50 [9]: 10.2 nM
IC50 [10]: > 100 µM
IC50 [11]: > 100 µM
IC50 [12]: 291 nM
IC50 [13]: 12 µM
IC50 [14]: 6.6 µM
metabolised [15]: 25%
metabolised [16]: 25%
metabolised [17]: 25%
metabolised [18]: 25%
metabolised [19]: 25%
metabolised [20]: 25%
metabolised [21]: > 60%
metabolised [22]: > 60%
metabolised [23]: 5%
CLH [24]: 0.12 mL/h
Drug metabolism [25]: Metabolite_Notdetected
Drug metabolism [26]: Metabolite_Notdetected
Drug metabolism [27]: Metabolite_Notdetected
Drug metabolism [28]: Metabolite_Notdetected
Drug metabolism [29]: Metabolite_Notdetected
Drug metabolism [30]: Metabolite_Notdetected
Drug metabolism [31]: Metabolite_Notdetected
Drug metabolism [32]: Metabolite_Detected
Drug metabolism [33]: Metabolite_Detected
Drug metabolism [34]: Metabolite_Detected
IC50 (Cytochrome P450 2C9): 900 nM
Compound: Cc1nnc(C)n1-c1ccc(O[C@H]2c3cc(Cl)cc(Cl)c3C[C@@H]2N2CC[C@@H](O)C2)c(F)c1.Cl
Activity (Salmonella typhimurium): Non-Toxic
Activity [35]: Non-Toxic
